From a melting point compilation (Tetko et al.; mined from patent text by program, amines drawn as free bases though some values may be those of a salt)

Row | SMILES | melting point [°C]
1 | COc1ccc(CCCc2c[nH]c(C(=O)N3CCC[C@@H]3C(=O)N[C@H]3CC(=O)O[C@@H]3OCc3ccccc3)n2)cc1 | 62 to 65
2 | O=C1N(Cc2ncccc2C(F)(F)F)c2c(F)cccc2C12COc1cc3c(cc12)OCCO3 (stereo not given) | 241 to 243
3 | O=C(O)c1cccc2c1S(=O)(=O)c1ccccc1C2=O | 237
4 | CN(Cc1cc2c(=O)c(C(=O)NCc3ccc(Cl)cc3)cn(C)c2s1)CC(O)c1ccccc1 (stereo not given) | 162 to 164
5 | CN(C)c1ccc(NC(=O)N(Cc2ccco2)C[C@@H]2CCC[C@H](CN(Cc3ccco3)C(=O)Nc3ccc(N(C)C)cc3)C2)cc1 | 68 to 73
6 | Cc1ccccc1NC(=O)c1cc(Br)c(OCc2ccccc2)cc1OCc1ccccc1 | 174 to 176
7 | CC(=O)n1c(=O)oc2c(Cl)c(Cl)c(Cl)cc21 | 171 to 172
8 | CCN(CC)Cc1nc2cc(OC)c(OC)cc2c(-c2ccc(OC)c(OC)c2)c1Cl | 146 to 148
9 | CC(=O)c1ccc2sc3ccc(C(C)=O)cc3c2c1 | 207 to 210
10 | CN(C(=O)C1CCC1)c1cccc(-c2ccnc3c(C#N)cnn23)c1 | 157 to 158
11 | O=C(O)CCCCC1NC(=O)OC1=O (stereo not given) | 102 to 104
12 | NC1CCCC(C(=O)N2CCC(c3[nH]nc4c3C(=O)c3c(NC(=O)NN5CCOCC5)cccc3-4)CC2)C1 (stereo not given) | 201 to 203
13 | COCC(=O)C(=NNc1ccccc1F)C(=O)OC | 121 to 126
14 | CCN(CC)c1ccc2c(c1)OC(=O)N(c1ccccc1)C2(c1ccc(N(C)C)cc1)c1ccc(N(C)C)cc1 | 206 to 207
15 | NC(=S)Nc1cnccn1 | 234 to 235
16 | CC(=O)Nc1ccc(NC(=O)c2ccc(-c3[nH]nc4c3C(=O)c3c(NC(=O)NN5CCOCC5)cccc3-4)s2)cc1 | 253 to 254
17 | CNCC(O)C(Oc1ccc2c(c1)OCO2)c1ccccc1 (stereo not given) | 100 to 122
18 | NC(=O)N(O)Cc1ccc(C(O)C#Cc2cccc(Cl)c2)cc1 (stereo not given) | 118 to 119
19 | N#Cc1nn(-c2ccc(S(N)(=O)=O)cc2)c2c1CSc1ccccc1-2 | 211 to 213
20 | Cc1cc(-c2cc(C(F)(F)F)n3ncc(C(=O)Nc4cccc(S(=O)(=O)N5CCOCC5)c4)c3n2)ccc1Cl | 251
21 | CNC(=O)CN1CCc2cc(Nc3ncc(Cl)c(Nc4cc(Cl)ccc4OC)n3)c(OC)cc2CC1 | 127 to 136
22 | CC(CCCO)C1CCC2C3CC=C4CC(OC5CCCCO5)CCC4(C)C3CCC12C (stereo not given) | 130 to 131

Row | SMILES | melting point [°C]
23 | CC1(C)OC(=O)Nc2ccc(-c3ccc(Cl)cc3)cc21 | 255 to 257
24 | Cc1nc(N2CCc3ccccc3CC2)c(C#N)c(=O)n1C(F)F | 143
25 | O=c1cc(CO)oc2ccccc12 | 165 to 167
26 | O=C(O)CCc1cc(CCNS(=O)(=O)c2ccc(Cl)cc2)cc(Cc2ccc(F)cc2)c1 | 85 to 87
27 | CC(=O)OCC(=O)Nc1ccc(C(CC2CCCC2)C(=O)Nc2nccs2)cc1 (stereo not given) | 90 to 95
28 | Cn1c(=O)n(CC2CO2)n(CC2CO2)c1=O (stereo not given) | 115 to 116
29 | CCc1nc2c(C)c(NS(C)(=O)=O)cnc2n1-c1ccc(CCNC(=O)NS(=O)(=O)c2ccc(C)cc2)cc1 | 166
30 | CC(C)c1ccc(N)c(C(=O)NCC2CCN(C(c3ccccc3)c3ccccc3)CC2)c1 | 114 to 116
31 | COc1ccc2ccccc2c1CCN | > 180
32 | CCOC(=O)c1ccc(Cn2c(C)nc3cnccc32)cc1 | 164 to 166
33 | C[C@]1(O)CCCC[C@H]1n1cnc(C(=O)N2CCNC[C@H]2Cc2ccccc2)c1-c1ccccc1 | 191
34 | C#CC1(O)CCc2c(OC)ccc(OC)c2C1 (stereo not given) | 103 to 105
35 | CCCNC(=S)N1CCc2[nH]cnc2C1 | 151
36 | Cc1nc2cc(C(=O)Nc3ccccc3)ccc2o1 | 138 to 139
37 | Fc1ccc(-c2cn([C@H]3CN4CCC3CC4)nn2)cn1 | 147
38 | Cc1c(Cl)cc(C(=O)CC(Cl)C(=O)O)cc1Cl (stereo not given) | 129 to 132
39 | CC1(C)SC2C(N3C(=O)c4ccccc4C3=O)C(=O)N2C1C(=O)OCc1ccc([N+](=O)[O-])cc1 (stereo not given) | 233 to 234
40 | O=C1N(N2CCCCC2)c2ccccc2C1(Cc1ccncc1)c1ccccc1 (stereo not given) | 128 to 131
41 | COC(=O)C1=C(NCc2ccccc2)C(=O)O[C@@H]1C | 68 to 70
42 | CN(C)CCOc1ccc(/C=C/C(=O)N2CC(CCl)c3c2cc(OCc2ccccc2)c2ncccc32)cc1 (stereo not given) | 172 to 175
43 | NC(=O)C1(c2cccc(Br)c2)CCOCC1 | 245 to 247
44 | CC(=O)NCc1ccc2c(c1)ncn2-c1cccc(-c2nccs2)c1 | 156

Row | SMILES | melting point [°C]
45 | COc1ccc(C(C)(C)O)cc1CN[C@H]1CN2CC[C@H]1[C@H](C(=O)O)[C@@H]2C(c1ccccc1)c1ccccc1 | 150 to 153
46 | CCOC(=O)C1C(=O)C=C(c2ccccc2)N=C1c1ccccc1 (stereo not given) | 177 to 179
47 | CC(CCC(=O)O)C(=O)N1c2ccccc2CCC1C(=O)O (stereo not given) | 117 to 119
48 | CC(=O)Nc1ccc(C#CCCN2CC=C(c3ccccc3)CC2)cn1 | 169 to 170
49 | O=C(O)CCOc1cccc2c1CCc1sc(SCC(c3ccccc3)c3ccccc3)nc1-2 | 123 to 125
50 | COc1cccc(-c2csc(N3CCN(C(=O)Nc4onc(C)c4C)CC3)n2)c1 | 158 to 159
51 | O=C1c2c(-c3ccccc3)noc2CCC1CCCN1CCOCC1 (stereo not given) | 86 to 88.5
52 | COc1ccc(CNc2nc(C)c(-c3ccncc3)s2)cc1OC | 134 to 135
53 | COC(=O)[C@@H]1CCN1S(=O)(=O)c1ccc(Cl)c(CBr)c1Cl | 150
54 | O=P(O)(O)CCCCCCCCCCCCCCCCCCCCCCC(F)(F)C(F)(F)C(F)(F)C(F)(F)F | 106 to 108
55 | O=C(CC1CCCCC1)Nc1c(Cl)ccc2nc(N3CC[C@@H](O)C3)ccc12 | 219 to 221
56 | C=C(C)n1c(=O)n(CCN2CCC(N(C)C(=O)c3ccccc3)CC2)c2ccccc21 | 120 to 122
57 | Cc1cc(=O)n(O)c(C)c1Cc1ccccc1 | 165
58 | COC(=O)C1(OC)CC(C)C(=O)C=C1O (stereo not given) | 117 to 118
59 | CCCN(Cc1cccc(-c2noc(C)n2)c1)C(=O)Nc1ccc(-c2ccccc2S(=O)(=O)NC(C)(C)C)cc1 | 150 to 151
60 | CCc1nc(-c2cnccn2)no1 | 52 to 57
61 | O=c1c2ccccc2c(-c2ccccc2)c2n1CCCC2O (stereo not given) | 220 to 222
62 | CCOC(=O)C(C#N)=NOC(=O)Oc1cc(Cl)c(Cl)cc1Cl | 101 to 103
63 | CC(C)(C)C(=O)OCn1nc2ccc(NCCCN3CCC(OC(c4ccccc4)c4ccccc4)CC3)nn2c1=O | 168 to 171
64 | O=c1nc(-c2ccnc(N3CCN(c4ccc(F)cc4)CC3)c2)sc2ccccc12 | 233 to 234
65 | Cc1c(-c2ccccc2)sc2ncc(C(=O)C(C)C)c(O)c12 | 114 to 117

Now from value to compound:

Row | melting point [°C] | SMILES
66 | 87.5 to 88.5 | N#Cc1ccc(C(=O)N=C=S)cc1
67 | 103 to 104 | N#CCC1CCN(C(c2ccccc2)c2ccccc2)CC1
68 | 111 to 114 | COc1nc2ccccc2c2c1ncn2CC(C)C
69 | 146 to 147 | COC(=O)C(=O)CC(C)C1CCC2C3CC=C4CC(OC(C)=O)CCC4(C)C3CCC12C (stereo not given)
70 | 131 to 134 | C#CCN1CC(=O)N(c2cc(Cl)ccc2C)C1=S
71 | 125 to 127 | CC(=O)Nc1cccc2c1SC(C)C2 (stereo not given)
72 | > 300 | O=S(=O)(O)c1cc(NCc2c(F)c(F)c(C(F)(F)F)c(F)c2F)ccc1O
73 | 160 to 163 | COC(=O)C1=C(N)OC(C)=C(C(C)=O)C1c1cccc([N+](=O)[O-])c1 (stereo not given)
74 | 102 to 103 | CCOC(=O)C(=NOCc1ccc(OCc2nc(-c3ccccc3)oc2C)cc1)c1ccc(OC)cc1
75 | > 300 | N=C(N)c1nc2c(s1)CCc1c-2sc2nc3ccccc3n12
76 | 115 to 117 | O=C(NC(NCCc1ccccc1)C(Cl)(Cl)Cl)c1ccncc1 (stereo not given)
77 | 149 to 152 | O=C(NCCO[N+](=O)[O-])c1csc(-c2cccc([N+](=O)[O-])c2)n1
78 | 114 | Cc1nc2n(c(=O)c1CCCl)CCCN2Cc1ccccc1
79 | 165 | Cc1cnc2n1-c1cc(Cl)c(Cl)cc1N=C(c1ccc(-n3c(C)nnc3C)cc1)C2
80 | 175 to 177 | CCOC(=O)CNC(=O)c1nc2ccc(Cl)nn2n1
81 | 134 to 135 | CCCn1c(CCOC)nc2c(N)nc3cc(OCCCNC(=O)OC(C)(C)C)ccc3c21
82 | 188 | CC(=O)N(O)CC1=C(n2ccccc2=O)c2cc(C(F)(F)F)ccc2OC1(C)C
83 | 112 to 114 | CNS(=O)(=O)c1cc(C(=O)CCC(=O)OC)ccc1Cl

Row | melting point [°C] | SMILES
84 | 182 to 183 | CC(=O)N(C(C)=O)c1cc2c(c(N(C(C)=O)C(C)=O)c1)OC(C(Cl)(Cl)Cl)OC2C(Cl)(Cl)Cl (stereo not given)
85 | 83 | C=C(C#N)C(=O)NCCCc1ccccc1
86 | 124 to 125 | CCOC(=O)CCNc1ncccc1NC(=O)c1ccc(Cl)cc1
87 | 152 to 153 | COc1cccc(Oc2ccc(CCNc3ncnc4nccnc34)cc2)n1
88 | 123 | NS(=O)(=O)c1cccc(C(=O)Cl)c1
89 | 239 to 241 | Cn1c(=O)n(O)c(=O)c2cc(F)c(F)cc21
90 | 65 to 68 | CCSC1CCC(=O)N1 (stereo not given)
91 | 55 to 57 | Nc1ccc(Sc2ccc(Cl)cc2)nc1
92 | 310 to 311 | COc1ccc(-c2c[nH]c3cc(OC)c(OC)cc3c2=O)cc1
93 | 145 to 146 | CC(N/C(C#N)=C(\N)C#N)c1ccc(Cl)cc1 (stereo not given)
94 | 138 to 140 | CC(C)(C)c1cc(CC2=NC(=S)SC2)cc(C(C)(C)C)c1O
95 | 101 to 122 | CN1CCN(c2nc(-c3ccccc3)c3ccccc3n2)CC1
96 | 155 to 156 | CS(=O)(=O)c1ccc(-n2nccc2-c2ccc(-c3ccco3)cc2)cc1F
97 | 110 to 112 | COc1cc(Nc2c(C#N)cnc3cc(/C=C/CCCN4CCOCC4)c(OC)cc23)c(Cl)cc1Cl
98 | 89 | CCCCCCCCN(CC(=O)NO)S(=O)(=O)c1ccc(C)cc1
99 | 178 to 180 | CCc1noc(C)c1-c1[nH]c2ccccc2c1C(O)CN(C)C (stereo not given)
100 | 228 to 229 | CN(c1cc(OC(F)(F)F)cc2cc(C(N)=O)[nH]c12)S(=O)(=O)c1cccs1
